According to US11691980B2, “Liphagal analog and multi-targeted kinase inhibitor containing liphagal or analog thereof” (TOHOKU UNIVERSITY, priority 2017, dated 2023):

Key:
MST 1 = target: T1, MST 1 (Homo sapiens, UniProt Q13043); experiment: mobility shift assay; type: biochemical
T1 construct: purchased Carna Biosciences

TXK = target: T2, TXK (Homo sapiens, UniProt P42681); experiment: mobility shift assay; type: biochemical
T2 construct: purchased Carna Biosciences
T2 sequence (P42681 whole entry): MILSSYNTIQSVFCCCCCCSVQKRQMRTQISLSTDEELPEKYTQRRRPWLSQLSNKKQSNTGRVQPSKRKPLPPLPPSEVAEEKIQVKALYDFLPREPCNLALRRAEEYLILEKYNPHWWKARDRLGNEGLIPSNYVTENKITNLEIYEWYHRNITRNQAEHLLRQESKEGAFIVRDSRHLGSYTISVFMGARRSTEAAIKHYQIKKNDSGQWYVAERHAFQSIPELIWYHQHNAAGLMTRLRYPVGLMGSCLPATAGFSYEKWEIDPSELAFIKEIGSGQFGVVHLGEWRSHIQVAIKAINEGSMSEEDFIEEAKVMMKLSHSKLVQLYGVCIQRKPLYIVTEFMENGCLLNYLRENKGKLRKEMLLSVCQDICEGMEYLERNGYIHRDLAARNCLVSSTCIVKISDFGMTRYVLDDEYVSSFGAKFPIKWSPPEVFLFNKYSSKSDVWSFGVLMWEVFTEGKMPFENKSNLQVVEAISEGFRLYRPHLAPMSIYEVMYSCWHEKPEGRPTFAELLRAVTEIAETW

T1 sequence (Q13043 whole entry): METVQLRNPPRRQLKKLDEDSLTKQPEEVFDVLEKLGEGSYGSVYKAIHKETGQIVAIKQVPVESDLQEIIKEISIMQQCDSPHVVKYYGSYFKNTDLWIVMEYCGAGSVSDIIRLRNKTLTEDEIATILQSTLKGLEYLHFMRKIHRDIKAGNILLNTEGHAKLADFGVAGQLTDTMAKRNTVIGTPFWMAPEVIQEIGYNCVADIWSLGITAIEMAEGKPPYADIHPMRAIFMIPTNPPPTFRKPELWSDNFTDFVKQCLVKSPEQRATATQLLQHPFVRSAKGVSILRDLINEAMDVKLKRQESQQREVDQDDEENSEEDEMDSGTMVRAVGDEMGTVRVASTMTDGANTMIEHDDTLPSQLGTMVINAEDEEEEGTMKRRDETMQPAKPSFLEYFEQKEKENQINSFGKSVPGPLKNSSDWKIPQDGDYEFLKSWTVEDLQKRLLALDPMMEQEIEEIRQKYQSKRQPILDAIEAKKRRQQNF

C[C@@H]1CC[C@H]2C(C)(C)CCC[C@]2(C)c2c1oc1c(C=O)c(O)c(O)cc21 [LG-1, liphagal]
inhibition at 10 µM (MST 1): 24.3%
inhibition at 10 µM (TXK): 23.1%
